In US20220315567A1 (priority 2016, published 2022):
Structures can show the parent of a compound that is named as a salt. Where two headings read alike, the source gives them in different places.

Experiments:
[1] = molecular target: T1, human OPRM1 (μ, MOR) (Homo sapiens, UniProt P35372); assay: cell-based; details: for Emax: OPRM1, read-out: cAMP Emax; for EC50: PathHunter human OPRM1 Arrestin CHO-K1 cell line, read-out: cAMP EC50
T1 construct: host or cells: CHO-K1
Experimental: G-protein signaling was measured via second messenger cAMP modulation. Detection of cAMP modulation was accomplished in the PathHunter human OPRM1 (μ, MOR) Arrestin CHO-K1 cell line using the Dynamic2 cAMP Kit from Cisbio.

[2] = molecular target: T1, human OPRM1 (μ, MOR); assay type: cell-based; details: for ΔRA of compound: relative activity from EC50 and Emax of β-arrestin vs cAMP, lower RA = more G-protein biased
Experimental: In certain embodiments, the ability of a compound to activate G-protein or β-arrestin is not an on/off switch for a given pathway, but rather a continuous function. To capture this, each compound is measured for activity in cell assays that are linked to β-arrestin recruitment and G-protein signaling. By comparing the activity between these two measures (accounting for both EC50 and maximal response reached, Emax) a relative activity (RA) value is determined.
In the case of MOR it is desirable to have high activation of the G-protein pathway while reducing activation of β-arrestin. In the case of the formula above, this means a lower RA.

[3] = molecular target: T1, human OPRM1 (μ, MOR); assay: cell-based; details: for Emax: OPRM1, read-out: β-Arrestin Emax; for EC50: PathHunter human OPRM1 Arrestin CHO-K1 cell line, read-out: β-Arrestin EC50
Experimental: The Discoverx PathHunter® β-Arrestin assay is used to measure β-arrestin-2 activity. The technology is based on Enzyme Fragment Complementation (EFC) with β-galactosidase (β-Gal) as the reporter. […] EA is fused to Q-arrestin-2, and ED is fused to the C-terminus of the GPCR of interest. When a ligand binds and the GPCR is activated, Q-arrestin-2 is recruited to the receptor resulting in an ED/EA complementation, restoring f-Gal activity, which is measured using chemiluminescence. For this assay, the PathHunter human OPRM1 (μ, MOR) Arrestin CHO-K1 cell line was used.

T1 sequence (P35372 whole entry): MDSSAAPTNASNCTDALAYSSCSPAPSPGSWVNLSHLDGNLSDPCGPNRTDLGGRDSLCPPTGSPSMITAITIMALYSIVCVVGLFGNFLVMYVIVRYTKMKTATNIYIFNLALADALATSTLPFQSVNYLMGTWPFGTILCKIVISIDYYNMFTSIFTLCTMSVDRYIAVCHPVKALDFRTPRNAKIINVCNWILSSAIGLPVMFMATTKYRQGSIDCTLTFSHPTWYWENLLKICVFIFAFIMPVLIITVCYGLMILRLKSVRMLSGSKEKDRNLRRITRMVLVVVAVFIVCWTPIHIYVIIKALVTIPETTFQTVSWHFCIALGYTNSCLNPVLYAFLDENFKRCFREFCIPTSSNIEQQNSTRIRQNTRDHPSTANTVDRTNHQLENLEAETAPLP

Row | SMILES | melting point | EC50 [1] | Bias Factor (ΔRA of compound relative to ΔRA of DAMGO) × 10 [2] | ΔRA of compound [2] | EC50 [3] | further results
1 | CN(C)C(CNC(=O)N1Cc2ccc(O)cc2C1)c1ccsc1 (stereo not shown) (as salt: hydrobromid) [Compound 22, N-(2-(Dimethylamino)-2-(thiophen-3-yl)ethyl)-5-hydroxyisoindoline-2-carboxamide hydrobromide] | 134 °C (dec.) | – | – | – | – | –
2 | CN(C)C(CNC(=O)N1Cc2ccc(O)cc2C1)c1ccc(O)cc1 (stereo not shown) (as salt: hydrobromid) [Compound 24, N-(2-(dimethylamino)-2-(4-hydroxyphenyl)ethyl)-5-hydroxyisoindoline-2-carboxamide hydrobromide] | 185 °C (dec.) | – | – | – | – | –
3 | CN(C)C(CNC(=O)N1Cc2ccccc2C1)c1ccsc1 (stereo not shown) (as salt: hydrochloride) [Compound 1a, N-(2-(Dimethylamino)-2-(thiophen-3-yl)ethyl)isoindoline-2-carboxamide hydrochloride] | 145 to 150 °C (dec.) | – | – | – | – | –
4 | CN(C)C(CNC(=O)N1Cc2cccc(F)c2C1)c1ccsc1 (stereo not shown) (as salt: hydrochloride) [Compound 3a, N-(2-(Dimethylamino)-2-(thiophen-3-yl)ethyl)-4-fluoroisoindoline-2-carboxamide hydrochloride] | 150 to 155 °C (dec.) | – | – | – | – | –
5 | CN(C)C(CNC(=O)N1Cc2ccc(Cl)cc2C1)c1ccsc1 (stereo not shown) (as salt: hydrochloride) [Compound 4a, 5-Chloro-N-(2-(dimethylamino)-2-(thiophen-3-yl)ethyl)isoindoline-2-carboxamide hydrochloride] | 210 to 215 °C (dec.) | – | – | – | – | –
6 | COc1ccc2c(c1)CN(C(=O)NCC(c1ccsc1)N(C)C)C2 (stereo not shown) (as salt: hydrochloride) [Compound 5a, N-(2-(Dimethylamino)-2-(thiophen-3-yl)ethyl)-5-methoxyisoindoline-2-carboxamide hydrochloride] | 210 to 215 °C (dec.) | – | – | – | – | –
7 | CN(C)C(CNC(=O)N1Cc2cc(F)c(F)cc2C1)c1ccsc1 (stereo not shown) (as salt: hydrochloride) [Compound 6a, N-(2-(dimethylamino)-2-(thiophen-3-yl)ethyl)-5,6-difluoroisoindoline-2-carboxamide hydrochloride] | 210 to 212 °C | – | – | – | – | –
8 | CN(C)C(CNC(=O)NC1CCc2ccccc2C1)c1ccsc1 (stereo not shown) (as salt: hydrochloride) [Compound 10a, 1-(2-(Dimethylamino)-2-(thiophen-3-yl)ethyl)-3-(1,2,3,4-tetrahydronaphthalen-2-yl)urea hydrochloride] | 151 to 153 °C | – | – | – | – | –
9 | CN(C)C(CNC(=O)NC1CCCc2ccccc21)c1ccsc1 (stereo not shown) (as salt: hydrochloride) [Compound 11a, 1-(2-(Dimethylamino)-2-(thiophen-3-yl)ethyl)-3-(1,2,3,4-tetrahydronaphthalen-1-yl)urea hydrochloride] | 179 to 181 °C | – | – | – | – | –
10 | Cc1ccc2c(c1)CN(C(=O)NCC(c1ccsc1)N(C)C)C2 (stereo not shown) (as salt: hydrochloride) [Compound 12a, N-(2-(Dimethylamino)-2-(thiophen-3-yl)ethyl)-5-methylisoindoline-2-carboxamide hydrochloride] | 200 to 202 °C (dec.) | – | – | – | – | –
11 | CN(C)C(CNC(=O)N(C)C1CCCc2ccccc21)c1ccsc1 (stereo not shown) (as salt: hydrochloride) [Compound 13a, 3-(2-(Dimethylamino)-2-(thiophen-3-yl)ethyl)-1-methyl-1-(1,2,3,4-tetrahydronaphthalen-1-yl)urea hydrochloride] | 188 to 190 °C | – | – | – | – | –
12 | CN(C)C(CNC(=O)N1Cc2ccccc2C1)c1ccc(F)cc1Cl (stereo not shown) (as salt: hydrochloride) [Compound 14a, N-(2-(2-Chloro-4-fluorophenyl)-2-(dimethylamino)ethyl)isoindoline-2-carboxamide hydrochloride] | 147 to 149 °C | – | – | – | – | –
13 | COc1ccc(C(CNC(=O)N2Cc3ccccc3C2)N(C)C)cc1 (stereo not shown) (as salt: hydrochloride) [Compound 15a, N-(2-(Dimethylamino)-2-(4-methoxyphenyl)ethyl)isoindoline-2-carboxamide hydrochloride] | 149 to 151 °C (dec.) | – | – | – | – | –
14 | COc1ccc(C(CNC(=O)N2Cc3ccc(F)cc3C2)N(C)C)cc1 (stereo not shown) (as salt: hydrochloride) [Compound 16a, N-(2-(Dimethylamino)-2-(4-methoxyphenyl)ethyl)-5-fluoroisoindoline-2-carboxamide hydrochloride] | 145 to 149 °C (dec.) | – | – | – | – | –
15 | CN(C)C(CNC(=O)N1Cc2ccc(F)cc2C1)c1ccc(F)cc1Cl (stereo not shown) (as salt: hydrochloride) [Compound 17a, N-(2-(2-Chloro-4-fluorophenyl)-2-(dimethylamino)ethyl)-5-fluoroisoindoline-2-carboxamide hydrochloride] | 173 to 174 °C (dec.) | – | – | – | – | –
16 | CN(C)C(CNC(=O)N1Cc2ccccc2C1)c1ccccc1 (stereo not shown) (as salt: hydrochloride) [Compound 18a, N-(2-(Dimethylamino)-2-phenylethyl)isoindoline-2-carboxamide hydrochloride] | 107 to 108 °C | – | – | – | – | –
17 | CN(C)[C@H](CCNC(=O)N1CC[C@H](c2ccccc2)C1)c1ccsc1 [Compound 75] | – | 2.09 µM | −3.97 | −1.88 | 17 µM | Emax [1]: 114%; Emax [3]: 12.2%
18 | CN(C)[C@H](CCNC(=O)N1CC[C@@H](c2ccccc2)C1)c1ccsc1 [Compound 76] | – | 1.76 µM | <−14.83 | <−2.96 | > 100 µM | Emax [1]: 33%; Emax [3]: < 1%
19 | CN(C)[C@@H](CCNC(=O)N1CC[C@@H](c2ccccc2)C1)c1ccsc1 [Compound 77] | – | 1.1 µM | <−14.83 | <−2.96 | > 100 µM | Emax [1]: 33.2%; Emax [3]: < 1%
20 | CNC(CNC(=O)N1Cc2ccccc2C1)c1ccsc1 (stereo not shown) [Compound 78] | – | 0.362 µM | <−14.83 | <−2.96 | > 100 µM | cAMP Emax [1]: 104.0%; β-Arrestin Emax [3]: 12.8%
21 | CNC(CNC(=O)N1Cc2ccccc2C1)c1ccsc1 (stereo not shown) [Compound 79] | – | 0.087 µM | <−14.83 | <−2.96 | > 100 µM | cAMP Emax [1]: 64.2%; β-Arrestin Emax [3]: 1.7%
22 | CNC(CNC(=O)N1Cc2cccc(F)c2C1)c1ccsc1 (stereo not shown) [Compound 80] | – | 0.041 µM | −6.64 | −2.14 | 1.4 µM | Emax [1]: 103%; β-Arrestin Emax [3]: 25.2%
23 | CNC(CNC(=O)N1Cc2cccc(F)c2C1)c1ccsc1 (stereo not shown) [Compound 81] | – | 0.014 µM | <−14.83 | <−2.96 | > 100 µM | cAMP Emax [1]: 91.6%; β-Arrestin Emax [3]: 8.2%
24 | CNC(CNC(=O)N1Cc2ccc(F)cc2C1)c1ccc(OC)cc1 (stereo not shown) [Compound 82] | – | 0.457 µM | <−14.83 | <−2.96 | > 100 µM | Emax [1]: 83.2%; β-Arrestin Emax [3]: 2.7%
25 | CNC(CNC(=O)N1Cc2ccc(F)cc2C1)c1ccc(OC)cc1 (stereo not shown) [Compound 83] | – | 0.057 µM | <−14.83 | <−2.96 | > 100 µM | cAMP Emax [1]: 100.1%; β-Arrestin Emax [3]: 13.4%
